Experimental data taken from publication PMC3128934, “Substrate Pathways and Mechanisms of Inhibition in the Sulfur Oxygenase Reductase of Acidianus Ambivalens” (Frontiers in Microbiology, 2011).

Assays:
[1] = tested on: sulfur oxygenase reductase (SOR); set-up: method as in Kletzin, [1989]; details: ref Kletzin, [1989], cited from earlier work; for residual activity for the oxidized reaction products: 0.1 mM inhibitor; for oxygenase activity remaining: 1 mM inhibitor
[2] = molecular target: sulfur oxygenase reductase (SOR) wild type (Acidianus ambivalens, UniProt P29082); assay: biochemical; details: Ki-value (half-maximal inhibitory concentration), wild type enzyme, 30 min preincubation at room temperature, reaction at 85°C
Experimental: (§1) Specific activities of the wild type and mutant proteins were determined by incubation of 2–5 μg of purified enzyme/ml of Tris–HCl buffer pH 7.2 containing 2% sulfur and 0.1% of Tween 20 as described previously (Kletzin, [1989]; Urich et al., [2004], [2005b]). Samples were taken at appropriate time points (usually after 0, 2, 4, 6, 8, and 10 min) and the concentration of the products was determined colorimetrically. Specific activities were calculated from the linear increase of product concentrations (Kletzin, [1989]). At least two activity measurements were performed for each mutant using independently purified protein preparations (see below, Table 2). Iron quantification was performed with pure protein preparations using the 2,4,6-tripyridyl-1,3,5-triazine method (TPTZ; Fischer and Price, [1964]). Protein concentrations were determined by the Coomassie Blue method (Bradford, [1976]) or using the BCA Protein Assay Kit (Novagen/Merck, Darmstadt, Germany) according to the manufacturer's instructions. Samples of purified proteins were separated by SDS-PAGE (Schägger and von Jagow, [1987]) and visualized with colloidal Coomassie Blue staining (Roti-Blue; Roth, Karlsruhe, Germany).
(§2) Zinc inhibition assays of the wild type and mutant proteins were performed by addition of a freshly prepared zinc chloride solution to the reaction buffer in concentrations ranging from 0.01 to 1 mM (Kletzin, [1989]). After addition of the enzyme, the mixture was incubated for 30 min at room temperature before starting the reaction by heating to 85°C and measurement of the specific activities. A zinc/buffer mixture without protein was used as a negative control.

[3] = molecular target: sulfur oxygenase reductase (SOR) H277A mutant (Acidianus ambivalens, UniProt P29082, H277A); assay: biochemical; details: for Ki: Ki-value (half-maximal inhibitory concentration), H277A mutant
Experimental: as §1, §2

[4] = molecular target: sulfur oxygenase reductase (SOR) H166A mutant (Acidianus ambivalens, UniProt P29082, H166A); assay: biochemical; details: for Ki: Ki-value (half-maximal inhibitory concentration), H166A mutant
Experimental: as §1, §2

sulfur oxygenase reductase (SOR) H166A mutant, sequence (P29082 whole entry H166A): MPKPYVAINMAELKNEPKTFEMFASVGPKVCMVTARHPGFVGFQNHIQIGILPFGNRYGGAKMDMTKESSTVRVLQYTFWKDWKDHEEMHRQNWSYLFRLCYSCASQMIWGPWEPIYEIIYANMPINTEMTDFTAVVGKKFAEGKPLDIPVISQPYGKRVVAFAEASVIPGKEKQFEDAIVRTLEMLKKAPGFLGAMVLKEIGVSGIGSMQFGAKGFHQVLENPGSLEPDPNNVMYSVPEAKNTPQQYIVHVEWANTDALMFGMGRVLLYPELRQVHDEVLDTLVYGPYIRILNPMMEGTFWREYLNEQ
sulfur oxygenase reductase (SOR) H277A mutant, sequence (P29082 whole entry H277A): as the sequence (P29082 whole entry H166A) above, with A166H, H277A counted along it
sulfur oxygenase reductase (SOR) wild type, sequence (P29082 whole entry): as the sequence (P29082 whole entry H166A) above, with A166H counted along it

[Hg+2] [Hg^2+]
residual activity for the oxidized reaction products [1]: 37%

NC(=O)CI [IAA, iodoacetamide]
oxygenase activity remaining [1]: 27%

CCN1C(=O)C=CC1=O [NEM, N-ethylmaleimide]
oxygenase activity remaining [1]: 47%

[Zn+2] [zinc chloride]
residual activity for the oxidized reaction products [1]: 74% | Ki ([2]; oxygenase activity): 45 µM | Ki ([2]; reductase activity): 39 µM | Increase of Ki-value compared to the wild type ([3]; H277A mutant vs wild type): two- to threefold | Ki ([3]; oxygenase activity): 157 µM | Ki ([3]; reductase activity): 144 µM | Increase of Ki-value compared to the wild type ([4]; H166A mutant vs wild type): two- to threefold | Ki ([4]; oxygenase activity): 121 µM | Ki ([4]; reductase activity): 150 µM
